Experimental data: article PMC3930709, “Selective Activation of hTRPV1 by N-Geranyl Cyclopropylcarboxamide, an Amiloride-Insensitive Salt Taste Enhancer” (PLoS ONE, 2014)
Each block holds one compound with its values, some of them ahead of it.

Legend:
Assay type in all cases: cell-based
hTRPA1 = molecular target: T1, hTRPA1 (Homo sapiens, UniProt O75762); experiment: Whole-cell patch clamp recording, cells stably expressing hTRPA1; details: AITC 100 µM; NGCC 10^3 µM; holding -80 mV
T1 construct: expressed in transfected cells
Experimental: Flp-In 293 cell lines stably expressing hTRPA1constructed as previously reported was a gift from the professor Takumi Misaka at University of Tokyo. The hTRPA1-expressing cells were cultured in DMEM containing 10% FBS and 0.02% hygromycin B (Invitrogen). Flp-In 293 cell lines were maintained in DMEM containing 10% FBS. All cells were incubated at 37°C in a humidified atmosphere of 5% CO2.
(§1) The whole-cell configuration was used to voltage-clamp at room temperature (22–25°C). Electrodes pulled from glass micropipette capillaries (Sutter Instrument) had resistances of 2–2.5 MΩ, and series resistance errors were compensated >60%. Fast and slow capacitances were compensated before the application of test-pulse. Recordings were performed using aHEKAEPC-10 amplifier with pulse software (HEKA Elektronik). The pipette solution contained: 140 mM KCl, 5 mM MgCl2, 10 mM HEPES, 0.1 mM 1,2-bis(2-aminophenoxy) ethane N,N,N’,N’-tetraacetic acid(BAPTA), 3 mM Na2ATP, and 0.1 mM Na3GTP, adjusted to pH 7.4 with KOH. The external Ringer’s solution used for recording TRPV1 and TRPA1 currents contained: 150 mM NaCl, 5 mM KCl, 1 mM MgCl2, 2 mM EGTA, 10 mM Glucose, and 10 mM HEPES, adjusted to pH 7.4 with NaOH. TRPV1 and TRPA1 currents were recorded by holding the cell at −80 mV. The external Ringer’s solution used for recording ASIC current contained: 160 mM NaCl, 5 mM KCl, 1 mM MgCl2, 2 mM CaCl2, and 10 mM HEPES, adjusted to pH 7.4 with tetramethylammonium hydroxide. For acidic solution of pH 6.0, HEPES was replaced with MES. ASIC currents were recorded by holding the cell at −70 mV. Reagents were obtained as follows: BAPTA, Na2ATP, Na3GTP, EGTA, and tetramethylammonium hydroxide (Sigma), HEPES (Calbiochem), MES (Alfa Aesar), and other chemicals (Merck).

αβγ hENaC = molecular target: T2, αβγ hENaC (Homo sapiens, UniProt P37088+P51168+P51170); experiment: Membrane potential assay (FMP dye) on αβγ hENaC-expressing cells; details: continuous presence of Bz (0.01 µM)
T2 construct: GFP; host or cells: HEK293T
T2 sequence (P37088 1-669): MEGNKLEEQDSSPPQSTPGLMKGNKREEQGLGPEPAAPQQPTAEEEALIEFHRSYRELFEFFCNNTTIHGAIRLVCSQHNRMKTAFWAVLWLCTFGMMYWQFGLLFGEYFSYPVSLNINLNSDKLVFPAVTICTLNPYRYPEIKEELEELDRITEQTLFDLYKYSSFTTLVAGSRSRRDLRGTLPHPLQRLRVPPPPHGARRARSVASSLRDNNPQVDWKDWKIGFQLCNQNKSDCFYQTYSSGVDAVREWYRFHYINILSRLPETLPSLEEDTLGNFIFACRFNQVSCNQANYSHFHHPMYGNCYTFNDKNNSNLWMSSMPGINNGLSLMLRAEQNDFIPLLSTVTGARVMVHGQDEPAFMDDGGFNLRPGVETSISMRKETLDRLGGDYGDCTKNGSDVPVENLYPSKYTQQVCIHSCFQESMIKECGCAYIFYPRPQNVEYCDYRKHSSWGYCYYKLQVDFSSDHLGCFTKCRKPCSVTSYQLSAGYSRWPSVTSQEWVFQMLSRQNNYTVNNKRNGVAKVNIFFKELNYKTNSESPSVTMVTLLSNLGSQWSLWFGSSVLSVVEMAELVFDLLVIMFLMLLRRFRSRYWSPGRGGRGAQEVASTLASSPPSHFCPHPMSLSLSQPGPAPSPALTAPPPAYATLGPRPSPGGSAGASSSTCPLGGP
T2 sequence (P51168 1-640): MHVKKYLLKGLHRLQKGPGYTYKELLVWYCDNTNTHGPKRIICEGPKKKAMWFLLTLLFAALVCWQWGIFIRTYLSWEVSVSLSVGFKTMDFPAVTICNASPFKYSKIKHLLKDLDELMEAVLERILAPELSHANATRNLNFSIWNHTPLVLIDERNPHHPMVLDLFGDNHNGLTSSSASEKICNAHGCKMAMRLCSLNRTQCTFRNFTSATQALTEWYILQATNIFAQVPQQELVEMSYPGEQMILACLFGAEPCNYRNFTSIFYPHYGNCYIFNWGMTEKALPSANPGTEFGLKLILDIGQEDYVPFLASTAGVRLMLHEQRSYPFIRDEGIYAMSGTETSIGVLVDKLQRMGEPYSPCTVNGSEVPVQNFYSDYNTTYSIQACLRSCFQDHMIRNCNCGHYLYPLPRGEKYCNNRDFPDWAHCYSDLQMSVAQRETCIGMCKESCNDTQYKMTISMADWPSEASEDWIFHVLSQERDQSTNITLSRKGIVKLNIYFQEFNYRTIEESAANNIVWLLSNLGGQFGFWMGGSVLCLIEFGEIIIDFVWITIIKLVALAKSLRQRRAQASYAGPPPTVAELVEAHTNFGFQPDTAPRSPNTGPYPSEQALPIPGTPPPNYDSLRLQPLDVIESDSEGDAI
T2 sequence (P51170 1-649): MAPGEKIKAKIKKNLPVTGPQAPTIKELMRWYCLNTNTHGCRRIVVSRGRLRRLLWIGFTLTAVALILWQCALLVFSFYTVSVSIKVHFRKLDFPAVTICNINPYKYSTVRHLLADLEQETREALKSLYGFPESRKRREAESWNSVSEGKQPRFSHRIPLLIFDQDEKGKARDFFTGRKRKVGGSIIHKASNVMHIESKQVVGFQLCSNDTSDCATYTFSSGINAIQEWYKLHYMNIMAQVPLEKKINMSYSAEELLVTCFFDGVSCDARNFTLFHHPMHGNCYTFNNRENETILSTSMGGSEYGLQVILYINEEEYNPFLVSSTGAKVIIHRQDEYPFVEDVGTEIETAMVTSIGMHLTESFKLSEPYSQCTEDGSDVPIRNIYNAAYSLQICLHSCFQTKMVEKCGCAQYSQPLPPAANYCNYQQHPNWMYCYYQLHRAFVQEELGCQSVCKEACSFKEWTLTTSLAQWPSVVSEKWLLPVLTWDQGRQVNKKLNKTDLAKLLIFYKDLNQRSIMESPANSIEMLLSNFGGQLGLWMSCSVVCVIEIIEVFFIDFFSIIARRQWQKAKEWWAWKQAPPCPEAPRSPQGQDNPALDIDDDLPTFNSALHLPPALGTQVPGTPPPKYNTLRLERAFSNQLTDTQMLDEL
Experimental: The α, β, and γ hENaC subunits were cloned from OriGene (Rockville, MD; GenBank accession number […] for SCNN1A, NM_000336 for SCNN1B and NM_001039 for SCNN1G). α, GFP-tagged β, and γ hENaC were cloned into a CMV promoter-based vector and expressed constitutively. The HEK293T cells were seeded onto a 35 mm dish and transfected with α, β, and γ hENaC expression plasmid using Lipofectamine 2000 (Invitrogen). Then, transfected cells were seeded onto 96-well black-wall plate for 18–26 h prior to their use in an experiment.
hENaC-expressing cells were characterized using FLIPER Membrane Potential (FMP) Assay Kit (Molecular Devices Corporation, Sunnyvale, CA, USA). In this assay, changes in the membrane potential were quantified via fluorescence change caused by FMP dye. The hENaC-expressing cells were washed with assay buffer (containing: 130 mM NaCl, 10 mM glucose, 5 mM KCl, 2 mM CaCl2, 1.2 mM MgCl2, and 10 mM HEPES, pH adjusted to 7.4 with NaOH) and subsequently, FMP blue-dye in assay buffer was loaded into the cells at room temperature for 30 min. After dye treatment, S3969 (0.03−10 µM), an ENaC agonist, S3969+Bz (ENaC antagonist, 0.01 µM), or NGCC (0.01−10 µM) was treated to hENaC-expressing cells. The plate was assayed in a FlexStation III plate reader (Molecular devices Corporation) by excitation at 530 nm and measuring the emission at 560 nm.

hTRPV1 [1] = molecular target: T3, hTRPV1 (Homo sapiens, UniProt Q8NER1); experiment: Whole-cell patch clamp recording, hTRPV1-expressing HEK293T cells
T3 construct: expressed in transfected cells; host or cells: HEK293T
Experimental: Mouse ASIC1a (mASIC1a) was a kind gift from John A. Wemmie (University of Iowa, IA, USA). For electrophysiological experiments, HEK293T cells were cultured in DMEM supplemented with 10% FBS and 0.2% penicillin/streptomycin and transiently transfected using Lipofectamine 2000 (Invitrogen) with various cDNAs. For TRPV1 channel expression, cells were transfected with hTRPV1, for ASIC1a homomeric channel expression, cells were transfected with mASIC1a. When needed, 0.1–0.2 µg of cDNA encoding tetrameric red fluorescence protein (DsRed) was co-transfected with the cDNA as a marker for successfully transfected cells. For non-transfected cells, cells were transfected with 0.1–0.2 µg of cDNA encoding DsRed alone. The next day, cells were plated onto poly-L-lysine-coated coverslip chips, and fluorescent cells were studied within 1–2 days.
as §1

hTRPV1 [2] = molecular target: T3, hTRPV1; experiment: Measurement of Ca2+ influx (Fluo-4 AM, FlexStation III) in hTRPV1-expressing cells; details: RR 30 µM or CPZ 1 µM added with agonist
Experimental: hTRPV1 was constructed by amplification of the hTRPV1 region (NCBI accession number: NG_029716.1) and cloned into pEAK10 vector (Edge Biosystems, Gaithersburg, MD, USA). The hTRPV1 construct was amplified by PCR and the nucleotide sequence of the hTRPV1 gene was confirmed by sequencing with an ABI 3130 DNA genetic analyzer (Applied Biosystems, Foster City, CA, USA). […] After 6 h, transfected cells were seeded onto 96-well black-wall plate (BD Falcon Labware, Franklin Lakes, NJ, USA) for 18–26 h prior to their use in an experiment. The ligand-induced changes on cytosolic Ca^2+ level were monitored by a FlexStation III microplate reader (Molecular Devices). Fluo-4 AM (5 µM, Molecular Probes, Eugene, OR, USA) in assay buffer was loaded to the cells in 96-well black-wall plates for 30 min at 27°C. After dye treatment, each chemical was added to each well at 17 s and changes on intracellular Ca^2+ level were monitored by relative fluorescence units (ΔRFU, Ex = 485 nm; Em = 516 nm) for 120 s. […] The responses from at least three wells receiving the same stimulus were averaged. Plots of amplitude versus concentration were fitted using the Hill equation.

hTRPV1 [3] = molecular target: T3, hTRPV1; experiment: Ca2+ imaging (Fura-2 AM) of hTRPV1-expressing HEK293T cells; details: NGCC 30 µM; RR 30 µM, CPZ 1 µM
Experimental: hTRPV1 was constructed by amplification of the hTRPV1 region (NCBI accession number: NG_029716.1) and cloned into pEAK10 vector (Edge Biosystems, Gaithersburg, MD, USA). The hTRPV1 construct was amplified by PCR and the nucleotide sequence of the hTRPV1 gene was confirmed by sequencing with an ABI 3130 DNA genetic analyzer (Applied Biosystems, Foster City, CA, USA). […] After 6 h, transfected cells were seeded onto 96-well black-wall plate (BD Falcon Labware, Franklin Lakes, NJ, USA) for 18-26 h prior to their use in an experiment. Mock-transfected HEK293T cells, hTRPV1-expressing HEK293T cells, non-hTRPA1-expressing Flp-In 293 cells, and hTRPA1-expressing Flp-In 293 cells grown in 96-well black-wall plates were rinsed with assay buffer (130 mM NaCl, 10 mM glucose, 5 mM KCl, 2 […]2, 1.2 mM MgCl2, and 10 mM HEPES, pH 7.4) and loaded with 5 μM Fura-2 AM (Invitrogen) for 30 min at 27°C. […] The fluorescence intensities of Fura-2 excited at 340 and 380 nm were simultaneously measured at 510 nm using a computer-controlled filter changer (Lambda DG4; Sutter, San Rafael, CA, USA), an Andor Luca CCD camera (Andor Technology, Belfast, UK), and an inverted fluorescence microscope (IX-71; Olympus, Tokyo, Japan). Intracellular calcium images were recorded every 3-s for 60-s and analyzed using MetaFluor software (Molecular Devices, Sunnyvale, CA, USA).

[4] = first pulse normalized to 1.0, n = 4

T3 sequence (Q8NER1 whole entry): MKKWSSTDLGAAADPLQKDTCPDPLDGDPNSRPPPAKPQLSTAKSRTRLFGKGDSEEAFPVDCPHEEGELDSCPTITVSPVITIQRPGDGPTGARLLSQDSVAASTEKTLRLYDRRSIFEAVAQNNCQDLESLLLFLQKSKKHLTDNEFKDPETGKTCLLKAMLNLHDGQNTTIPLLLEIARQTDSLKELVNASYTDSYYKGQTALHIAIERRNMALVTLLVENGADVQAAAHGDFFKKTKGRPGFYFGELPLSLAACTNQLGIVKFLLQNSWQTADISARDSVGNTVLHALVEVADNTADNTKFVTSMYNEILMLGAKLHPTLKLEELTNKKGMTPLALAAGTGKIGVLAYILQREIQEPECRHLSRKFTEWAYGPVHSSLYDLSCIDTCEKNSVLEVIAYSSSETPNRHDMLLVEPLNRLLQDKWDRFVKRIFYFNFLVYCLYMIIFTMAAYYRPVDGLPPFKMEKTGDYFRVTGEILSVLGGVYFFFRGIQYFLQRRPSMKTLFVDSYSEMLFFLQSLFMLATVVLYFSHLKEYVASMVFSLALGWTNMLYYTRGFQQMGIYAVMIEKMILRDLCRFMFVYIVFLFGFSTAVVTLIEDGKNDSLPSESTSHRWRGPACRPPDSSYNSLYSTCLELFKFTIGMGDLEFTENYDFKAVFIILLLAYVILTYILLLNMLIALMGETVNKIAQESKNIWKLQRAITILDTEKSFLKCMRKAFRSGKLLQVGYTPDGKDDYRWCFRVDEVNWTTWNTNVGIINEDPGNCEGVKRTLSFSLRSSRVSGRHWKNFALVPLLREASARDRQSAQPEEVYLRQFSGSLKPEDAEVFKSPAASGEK
T1 sequence (O75762 whole entry): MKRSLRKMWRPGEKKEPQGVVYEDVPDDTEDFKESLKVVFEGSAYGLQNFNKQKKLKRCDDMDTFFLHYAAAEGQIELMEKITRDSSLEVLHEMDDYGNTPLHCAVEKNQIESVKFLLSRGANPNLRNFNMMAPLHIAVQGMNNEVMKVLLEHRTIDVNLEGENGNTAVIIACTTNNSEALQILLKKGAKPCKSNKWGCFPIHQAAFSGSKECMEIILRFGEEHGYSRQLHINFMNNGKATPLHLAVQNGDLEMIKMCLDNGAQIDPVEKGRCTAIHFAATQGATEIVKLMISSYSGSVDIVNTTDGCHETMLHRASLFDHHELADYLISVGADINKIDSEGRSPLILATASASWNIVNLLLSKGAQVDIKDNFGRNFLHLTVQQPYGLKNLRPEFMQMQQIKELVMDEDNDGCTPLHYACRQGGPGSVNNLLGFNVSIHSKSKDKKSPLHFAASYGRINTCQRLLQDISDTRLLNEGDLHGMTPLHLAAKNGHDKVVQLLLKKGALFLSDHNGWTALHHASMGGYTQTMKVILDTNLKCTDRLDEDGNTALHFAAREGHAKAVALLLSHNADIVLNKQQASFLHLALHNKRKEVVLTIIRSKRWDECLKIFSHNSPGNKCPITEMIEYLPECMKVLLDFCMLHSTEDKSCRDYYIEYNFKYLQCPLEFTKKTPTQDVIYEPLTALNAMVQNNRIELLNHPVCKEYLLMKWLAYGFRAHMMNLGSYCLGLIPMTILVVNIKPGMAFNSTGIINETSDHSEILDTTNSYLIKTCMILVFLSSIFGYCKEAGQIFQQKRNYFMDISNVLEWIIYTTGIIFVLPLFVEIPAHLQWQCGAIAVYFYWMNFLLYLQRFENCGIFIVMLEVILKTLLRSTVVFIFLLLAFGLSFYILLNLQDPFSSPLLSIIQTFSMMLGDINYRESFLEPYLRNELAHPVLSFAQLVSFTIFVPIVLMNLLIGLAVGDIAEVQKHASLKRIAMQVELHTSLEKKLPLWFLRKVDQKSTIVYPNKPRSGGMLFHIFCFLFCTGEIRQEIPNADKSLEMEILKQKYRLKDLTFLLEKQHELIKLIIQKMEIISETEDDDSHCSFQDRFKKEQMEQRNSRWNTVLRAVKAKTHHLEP

Structure (SMILES): C=CCN=C=S [AITC, Allylisothiocyanate]
- inward current in hTRPA1-expressing cells (hTRPA1): evoked an inward current

- inhibition of S3969 activity on αβγ hENaC-expressing cells (αβγ hENaC): No effect of S3969 was observed
Structure (SMILES): NC(=NCc1ccccc1)NC(=O)c1nc(Cl)c(N)nc1N [Bz, benzamil]

- block of capsaicin-induced current (hTRPV1 [1]; CPZ 1 µM preincubation 20 seconds, capsaicin 100 nM): blocked
- normalized current density of NGCC-induced current after wash out of CPZ (hTRPV1 [1]; [4]): 0.61±0.12
- normalized current density of NGCC-induced current under CPZ (hTRPV1 [1]; [4]): 0.12±0.05
- block of NGCC-induced Ca2+ influx in hTRPV1-expressing cells (hTRPV1 [3]): blocked NGCC activity to baseline levels
Structure (SMILES): Oc1cc2c(cc1O)CN(C(=S)NCCc1ccc(Cl)cc1)CCC2 [CPZ, capsazepine]
- block of capsaicin- and NGCC-induced hTRPV1 activation (dose-response) (hTRPV1 [2]): blocked the effects of capsaicin and NGCC
